For assay [1], the species on record is Homo sapiens. As to the kind of experiment: Binding affinity to alpha-glucosidase (unknown origin) assessed as change in gibbs free energy at 298 K by Van't Hoff equation analysis.
Assay [2] is filed under the species Homo sapiens. As to the kind of experiment: Binding affinity to alpha-glucosidase (unknown origin) assessed as binding constant at 298 K.
The species named for assay [3] is Rattus norvegicus. Nature of the assay: Inhibition of alpha-glucosidase in rat everted intestinal sleeves assessed as reduction in glucose concentration within intestinal sleeves at 0.173 mM measured for 5 to 90 mins. In kind it is tissue-based. The conditions noted are these: Intestine, time min 5-90.
For assay [4], the species on record is Homo sapiens. As to the kind of experiment: Binding affinity to alpha-glucosidase (unknown origin) assessed as hydrogen bonding interactions by measuring change in entropy at 304 K by Van't Hoff equation analysis.
A short description of assay [5]: Inhibition of alpha-glucosidase (unknown origin). Further details: species or system Homo sapiens. The conditions noted are these: read-out: IC50.
Assay [6] is filed under the species Homo sapiens. As to the kind of experiment: Non-competitive inhibition of alpha-glucosidase (unknown origin) assessed as decrease in Vmax with constant Km at 0.0 to 2.5 uM using p-NPG as substrate by Lineweaver-Burk plot analysis. The conditions noted are these: dose microM 0.0-2.5.
The nature of assay [7]: Binding affinity to alpha-glcosidase (unknown origin) using p-NPG as substrate. On the set-up: species or system Homo sapiens.
For assay [8], the species on record is Homo sapiens. As to the kind of experiment: Binding affinity to alpha-glucosidase (unknown origin) assessed as fluorescence quenching at 0.33 to 3.66 uM by fluorescence spectral analysis. The conditions noted are these: dose microM 0.33-3.66.
For assay [9], the species on record is Homo sapiens. Nature of the assay: Binding affinity to alpha-glucosidase (unknown origin) assessed as Stern-Volmer quenching constant at 298 K.
The species named for assay [10] is Homo sapiens. As to the kind of experiment: Binding affinity to alpha-glucosidase (unknown origin) assessed as Stern-Volmer quenching constant at 304 K.
The species named for assay [11] is Homo sapiens. As to the kind of experiment: Binding affinity to alpha-glucosidase (unknown origin) assessed as Stern-Volmer quenching constant at 310 K.
The species named for assay [12] is Homo sapiens. Nature of the assay: Binding affinity to alpha-glucosidase (unknown origin) assessed as binding constant at 304 K.
Assay [13] is filed under the species Homo sapiens. Nature of the assay: Binding affinity to alpha-glucosidase (unknown origin) assessed as binding constant at 310 K.
The species entered for assay [14] is Homo sapiens. Nature of the assay: Binding affinity to alpha-glucosidase (unknown origin) assessed as hydrophobic interactions by measuring change in enthalpy at 304 K by Van't Hoff equation analysis.
For assay [15], the species on record is Homo sapiens. Nature of the assay: Binding affinity to alpha-glucosidase (unknown origin) assessed as change in gibbs free energy at 304 K by Van't Hoff equation analysis.
The species entered for assay [16] is Homo sapiens. Nature of the assay: Binding affinity to alpha-glucosidase (unknown origin) assessed as change in gibbs free energy at 310 K by Van't Hoff equation analysis.
Assay [17] is filed under the species Mus musculus. As to the kind of experiment: Hypoglycemic activity in Kunming mouse assessed as reduction in maltose-induced postprandial blood glucose level measured after 15 to 120 mins by maltose loading test. The assay is classed as functional, organism-based. The conditions noted are these: time min 15-120.
The species named for assay [18] is Mus musculus. Nature of the assay: Hypoglycemic activity in Kunming mouse assessed as reduction in maltose-induced blood glucose AUC (0 to 120 mins) by maltose loading test. The assay is classed as functional, organism-based. The conditions noted are these: time min 0-120.
The species entered for assay [19] is Rattus norvegicus. As to the kind of experiment: Inhibition of alpha-glucosidase in rat everted intestinal sleeves assessed as reduction in glucose concentration outside of the intestinal sleeves at 0.173 mM measured after 5 to 90 mins. The conditions noted are these: Intestine, time min 5-90. In kind it is tissue-based.
The species named for assay [20] is Homo sapiens. As to the kind of experiment: Binding affinity to alpha-glucosidase (unknown origin) assessed as enzyme complexation with compound by measuring mean height of enzyme at 2.5 uM by atomic force microscopy (reference value: 0.87 nm).
The species entered for assay [21] is Homo sapiens. Nature of the assay: Binding affinity to alpha-glucosidase (unknown origin) assessed as enzyme complexation with compound at 2.5 uM by measuring mean width of enzyme by atomic force microscopy (reference value: 28.35 nm).
The species entered for assay [22] is Homo sapiens. As to the kind of experiment: Binding affinity to alpha-glucosidase (unknown origin) assessed as quenching constant at 304 K.
The species entered for assay [23] is Homo sapiens. As to the kind of experiment: Binding affinity to alpha-glucosidase (unknown origin) assessed as quenching constant at 310 K.
For assay [24], the species on record is Homo sapiens. As to the kind of experiment: Binding affinity to alpha-glucosidase (unknown origin) assessed as quenching constant at 298 K.
Assay [25] is filed under the species Homo sapiens. Nature of the assay: Binding affinity to alpha-glucosidase (unknown origin) assessed as decrease in fluorescence intensity of Trp residue without shift in maximum emission wavelength at 0.33-3.22 uM by fluorescence based Synchronous fluorescence spectroscopy. The conditions noted are these: dose microM 0.33-3.22.
Assay [26] is filed under the species Homo sapiens. Nature of the assay: Binding affinity to alpha-glucosidase (unknown origin) assessed as decrease in fluorescence intensity of Tyr residue without shift in maximum emission wavelength at 0.33 to 3.22 uM by fluorescence based Synchronous fluorescence spectroscopy. The conditions noted are these: dose microM 0.33-3.22.
The species entered for assay [27] is Rattus norvegicus. Nature of the assay: Inhibition of alpha-glucosidase in rat everted intestinal sleeves assessed as reduction in blood glucose AUC (0-90) within intestinal sleeves at 0.173 mM. In kind it is tissue-based. The conditions noted are these: Intestine, time min 0-90.
Assay [28] is filed under the species Rattus norvegicus. Nature of the assay: Inhibition of alpha-glucosidase in rat everted intestinal sleeves assessed as reduction in blood glucose AUC (0-90) outside of the intestinal sleeves at 0.173 mM. The assay is classed as tissue-based. The conditions noted are these: Intestine, time min 0-90.
Assay [29] is filed under the species Homo sapiens. As to the kind of experiment: Binding affinity to alpha-glucosidase (unknown origin) assessed as destabilization of enzyme conformation by measuring induction of protein aggregation at 2.5 uM by atomic force microscopy.
The species named for assay [30] is Homo sapiens. Nature of the assay: Binding affinity to alpha-glucosidase (unknown origin) assessed as change in the microenvironment of tyrosine and tryptophan residues at 0.33 to 3.32 uM by fluorescence based Synchronous fluorescence spectroscopy. The conditions noted are these: dose microM 0.33-3.32.
For assay [31], the species on record is Rattus norvegicus. Nature of the assay: Inhibition of alpha-glucosidase in rat everted intestinal sleeves assessed as reduction in glucose concentration within intestinal sleeves at 0.5 mM measured for 5 to 90 mins. The conditions noted are these: Intestine, time min 5-90. The assay is classed as tissue-based.
The species entered for assay [32] is Rattus norvegicus. Nature of the assay: Inhibition of alpha-glucosidase in rat everted intestinal sleeves assessed as reduction in glucose concentration outside of the intestinal sleeves at 0.5 mM measured after 5 to 90 mins. The assay is classed as tissue-based. The conditions noted are these: Intestine, time min 5-90.
For assay [33], the species on record is Rattus norvegicus. Nature of the assay: Inhibition of alpha-glucosidase in rat everted intestinal sleeves assessed as reduction in blood glucose AUC (0-90) within intestinal sleeves at 0.5 mM. The assay is classed as tissue-based. The conditions noted are these: Intestine, time min 0-90.
The species entered for assay [34] is Rattus norvegicus. As to the kind of experiment: Inhibition of alpha-glucosidase in rat everted intestinal sleeves assessed as reduction in blood glucose AUC (0-90) outside of the intestinal sleeves at 0.5 mM. The conditions noted are these: Intestine, time min 0-90. In kind it is tissue-based.

From ChEMBL document CHEMBL4699496, “Exploring efficacy of natural-derived acetylphenol scaffold inhibitors for α-glucosidase: Synthesis, in vitro and in vivo biochemical studies” (Bioorg Med Chem Lett, 2020) come the findings set out here.

Molecules are shown by their SMILES. Activity calls are given as the source filed them. The calls are words filed in the database; no cut-off is given here.

As for `CCCCCCCC(=O)c1cc(C)c(OC(=O)CI)cc1O`, the values for the deltaG in the assay listed under Homo sapiens [1], in the assay listed under Homo sapiens [15] and in the assay listed under Homo sapiens [16] were -4.23 kcal/mol, -4.29 kcal/mol and -4.36 kcal/mol, respectively. Besides, the figures for the Ka in the assay listed under Homo sapiens [2], in the assay filed under Homo sapiens [12] and in the assay listed under Homo sapiens [13] were 1.39 10^4L/mol, 1.34 10^4L/mol and 1.3 10^4L/mol, respectively. Moreover, the inhibition entry in the assay listed under Rattus norvegicus [3], in the assay filed under Homo sapiens [6], in the assay filed under Rattus norvegicus [19], in the assay filed under Rattus norvegicus [27] and in the assay listed under Rattus norvegicus [28] was “Active” throughout. For the same compound, the deltaS in the assay listed under Homo sapiens [4] came to 45 J/mol/K. In assay [5], the IC50 is 1690 nM. This compound also registered an inhibition constant Ki in [7] of 1620 nM. In addition, the outcome in the assay listed under Homo sapiens [8], in the assay listed under Mus musculus [18], in the assay listed under Homo sapiens [25] and in the assay listed under Homo sapiens [29] was Active. The KSV in the assay listed under Homo sapiens [9] is 2.27 10^4L/mol; in the assay filed under Homo sapiens [10], 1.95 10^4L/mol; in the assay listed under Homo sapiens [11], 1.64 10^4L/mol. Further, the deltaH in the assay filed under Homo sapiens [14] is -1.02 kcal/mol. Besides, the results for the Activity entry in the assay filed under Mus musculus [17], in the assay filed under Homo sapiens [20] and in the assay filed under Homo sapiens [21] were “Dose-dependent effect”, 0.75 nm and 47.5 nm, respectively. Also, the Kq in the assay listed under Homo sapiens [22] is 1.95 10^12L/mol/s; in the assay filed under Homo sapiens [23], 1.64 10^12L/mol/s; in the assay listed under Homo sapiens [24] it was 2.27 10^12L/mol/s. Besides, the result in the assay filed under Homo sapiens [26] and in the assay filed under Homo sapiens [30] was inactive.
With `C[C@H]1O[C@H](O[C@H]2[C@H](O)[C@@H](O)[C@@H](O[C@H]3[C@H](O)[C@@H](O)C(O)O[C@@H]3CO)O[C@@H]2CO)[C@H](O)[C@@H](O)[C@@H]1N[C@H]1C=C(CO)[C@@H](O)[C@H](O)[C@H]1O` (some centres not stated) [ACARBOSE], the inhibition result in the assay listed under Rattus norvegicus [31], in the assay listed under Rattus norvegicus [32], in the assay listed under Rattus norvegicus [33] and in the assay listed under Rattus norvegicus [34] was “Active” throughout. Besides, the IC50 in assay [5] was determined as 57000 nM. Besides, the result in the assay filed under Mus musculus [17] and in the assay listed under Mus musculus [18] was Active.

By IC50 is commonly meant the point on the concentration scale where inhibition reaches its midpoint. One may read the Ki as the equilibrium dissociation constant of an inhibitor or competing ligand from its target.
